# In ChEMBL document CHEMBL1153173, “Oxygenated analogues of UK-396082 as inhibitors of activated thrombin activatable fibrinolysis inhibitor” (Bioorg Med Chem Lett, 2010):
# Tests used:
# Carboxypeptidase B2 = biological target: T1, Carboxypeptidase B2 (Homo sapiens, UniProt Q96IY4); experiment: Inhibition of active form of human recombinant TAFI assessed as substrate turnover every 15 seconds for 30 mins
# T1 sequence (Q96IY4 whole entry): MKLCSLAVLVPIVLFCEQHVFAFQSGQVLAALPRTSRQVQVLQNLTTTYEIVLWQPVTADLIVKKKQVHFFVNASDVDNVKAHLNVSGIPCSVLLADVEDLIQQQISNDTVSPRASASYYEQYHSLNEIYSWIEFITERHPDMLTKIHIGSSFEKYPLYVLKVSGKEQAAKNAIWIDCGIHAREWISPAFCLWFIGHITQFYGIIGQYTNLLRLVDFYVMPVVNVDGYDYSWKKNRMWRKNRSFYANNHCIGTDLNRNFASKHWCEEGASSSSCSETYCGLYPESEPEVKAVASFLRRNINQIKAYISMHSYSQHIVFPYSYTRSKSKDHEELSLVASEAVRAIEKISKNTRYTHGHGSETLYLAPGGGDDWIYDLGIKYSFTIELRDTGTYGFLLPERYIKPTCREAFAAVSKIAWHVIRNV
# Carboxypeptidase B = biological target: T2, Carboxypeptidase B (Homo sapiens, UniProt P15086); experiment: Inhibition of human pancreatic carboxypeptidase B
# T2 sequence (P15086 whole entry): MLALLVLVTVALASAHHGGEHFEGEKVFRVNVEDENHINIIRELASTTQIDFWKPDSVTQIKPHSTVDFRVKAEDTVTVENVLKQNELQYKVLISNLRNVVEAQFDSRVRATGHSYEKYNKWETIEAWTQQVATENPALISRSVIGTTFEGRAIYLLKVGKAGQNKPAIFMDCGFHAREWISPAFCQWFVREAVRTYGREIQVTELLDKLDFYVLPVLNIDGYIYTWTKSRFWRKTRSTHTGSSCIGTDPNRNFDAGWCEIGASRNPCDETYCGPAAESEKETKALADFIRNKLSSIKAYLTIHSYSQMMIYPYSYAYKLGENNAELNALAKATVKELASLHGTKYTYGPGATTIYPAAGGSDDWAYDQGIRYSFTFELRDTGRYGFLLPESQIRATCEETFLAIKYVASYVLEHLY
# [1] = Volume of distribution in rat at 2 mg/kg, iv; type: ADME, organism-based; set-up: dose 2 mg/kg, route intravenous; settings: in vivo
# Plasma = experiment: Plasma protein binding in rat; type: ADME, cell-free
# [2] = Half life in rat at 5 mg/kg, po; type: ADME, organism-based; set-up: dose 5 mg/kg, route oral; settings: in vivo
# [3] = Half life in rat at 2 mg/kg, iv; type: ADME, organism-based; set-up: dose 2 mg/kg, route intravenous; settings: in vivo
# [4] = Clearance in rat at 2 mg/kg, iv; type: ADME, organism-based; set-up: dose 2 mg/kg, route intravenous; settings: in vivo
# [5] = Oral bioavailability in rat at 5 mg/kg; type: ADME, organism-based; settings: in vivo
# [6] = Clearance in human at 10 mg/kg, iv; type: ADME, organism-based; set-up: dose 10 mg/kg, route intravenous; settings: in vivo
# [7] = Half life in human at 10 mg/kg, iv; type: ADME, organism-based; set-up: dose 10 mg/kg, route intravenous; settings: in vivo
# [8] = Volume of distribution in human at 10 mg/kg, iv; type: ADME, organism-based; set-up: dose 10 mg/kg, route intravenous; settings: in vivo
Ki (Carboxypeptidase B2) [nM],Ki (Carboxypeptidase B) [nM],Structure (SMILES),other results
3.5,27,NCCO[C@@H](Cc1cn(-c2ccccc2)cn1)C(=O)O,–
5.7,49,CC(C)(C)c1ccc(-n2cnc(C[C@H](OCCN)C(=O)O)c2)cc1,–
7.5,240,C[C@H](CN)O[C@@H](Cc1cn(-c2ccccc2)cn1)C(=O)O,–
6.7,238,CCCn1cnc(C[C@H](OCCN)C(=O)O)c1,Vd [1]: 3.1 L/kg; PPB (Plasma): 0%; half-life [2]: 2.1 h; half-life [3]: 2.7 h; clearance [4]: 13.4 mL/min/kg; bioavailability [5]: 9.8%
65,2720,Cc1ccccc1-n1cnc(CC(OCCN)C(=O)O)c1 (racemic),–

# Second part, the molecule before the results:
Structure (SMILES),Ki (Carboxypeptidase B2) [nM],Ki (Carboxypeptidase B) [nM],other results
CCCn1cnc(C[C@H](NCCN)C(=O)O)c1,150,1160,–
C[C@H](CN)O[C@@H](Cc1cn(-c2ccccn2)cn1)C(=O)O,5.8,265,–
NCCO[C@@H](Cc1cn(CCC2CCCCC2)cn1)C(=O)O,8.2,27,–
CCCn1cnc(C[C@@H](OCCN)C(=O)O)c1,> 10000,> 10000,–
CCCn1cnc(CC(OCCNC)C(=O)O)c1 (racemic),407,> 10000,–
CCCCn1cnc(CC(OCCN)C(=O)O)c1 (racemic),15,360,–
"CCCn1cnc(C[C@H](CCCN)C(=O)O)c1 [UK-396,082]",16,206,Vd [1]: 1.9 L/kg; clearance [6]: 1.5 mL/min/kg; PPB (Plasma): 0%; half-life [7]: 4 h; half-life [2]: 2.4 h; Vd [8]: 0.5 L/kg; half-life [3]: 2.1 h; clearance [4]: 10.2 mL/min/kg; bioavailability [5]: 10.6%
